Calls of active or inactive are those of the source. The calls are words filed in the database; no cut-off is given here.
Legend:
HT-29 [1] = assay: Induction of apoptosis in human HT-29 cells assessed as necrotic cells at 5 uM preincubated with Z-VAD-FMK for 1 hr followed by compound addition and measured after 24 hrs by Annexin V-FITC/PI staining based flow cytometric analysis (reference value: 0.4 %); type: functional
Mus musculus [2] = assay: In vivo inhibition of NFkappaB activation in athymic BALB/c mouse xenografted with human HCT-116 cells assessed as reduction in MCP-1 gene expression in tumor at 15 mg/kg, ip administered every other day and measured after 14 days by qRT-PCR analysis; type: functional, organism-based; conditions: time 14.0 day
HT-29 [3] = assay: Induction of cell cycle arrest in human HT-29 cells assessed as decrease in Cyclin B protein expression upto 10 uM incubated for 24 hrs by Western blot analysis; type: functional, cell-based
HT-29 [4] = assay: Induction of cell cycle arrest in human HT-29 cells assessed as decrease in CDK2 protein expression upto 10 uM incubated for 24 hrs by Western blot analysis; type: functional, cell-based
Mus musculus [5] = assay: Protection against LPS-induced endotoxic shock in BALB/c mouse model assessed as survival rate at 5 mg/kg, ip pretreated for 4 hrs followed by LPS administration at 20 mg/kg and measured every 2 to 4 hrs for 44 hrs relative to control; type: functional; conditions: time 48 hrs
HCT-116 [6] = assay: Induction of apoptosis in human HCT-116 cells assessed as necrotic cells at 0.25 uM incubated for 24 hrs by Annexin V-FITC/PI staining based flow cytometric analysis (reference value: 1.1 %); type: functional
HT-29 [7] = assay: Induction of apoptosis in human HT-29 cells assessed as viable cells at 5 uM preincubated with Z-VAD-FMK for 1 hr followed by compound addition and measured after 24 hrs by Annexin V-FITC/PI staining based flow cytometric analysis (reference value: 88.5 %); type: functional; conditions: read-out: Activity
HCT-116 [8] = assay: Induction of autophagic flux in human HCT-116 cells assessed as increase in LC3 protein expression preincubated with 3-methyladenine for 1 hr followed by compound addition and measured after 24 hrs by Western blot analysis; type: functional, cell-based
HCT-116 [9] = assay: Induction of apoptosis in human HCT-116 cells assessed as viable cells at 10 uM incubated for 24 hrs by Annexin V-FITC/PI staining based flow cytometric analysis (reference value: 88.8%); type: functional; conditions: read-out: Activity
[10] = Toxicity in athymic nude BALB/c mouse xenografted with human HT-29 cells assessed as pathological changes in kidney at 5 to 15 mg/kg, ip administered every other day and measured after 14 days by hematoxylin and eosin staining-based microscopic analysis; type: organism-based; conditions: in vivo, 336 h, dose 5-15 mg/kg, time 14 day
HCT-116 [11] = assay: Induction of cell cycle arrest in human HCT-116 cells assessed as accumulation of cells at G2/M phase at 10 uM by RNase/PI staining based flow cytometry analysis (reference value: 23.15 %); type: functional
RAW264.7 [12] = assay: Inhibition of LPS-induced NFkappaB activation in mouse RAW264.7 cells assessed as inhibition of p65 phosphorylation preincubated for 24 hrs followed by LPS stimulation for 3 hrs by Western blot analysis; type: cell-based; conditions: dose 1-10 µM, time 27.0 hrs
[13] = target: T1, Nuclear factor NF-kappa-B complex (Homo sapiens) (UniProt Q00653+P19838+Q04206); assay: Inhibition of TNF-alpha induced NFkappaB activation in human HT-29 cells assessed as inhibition of p65 nuclear translocation at 10 uM pretreated for 6 hrs followed by TNFalpha stimulation for 15 mins by immunohistochemical analysis; type: cell-based; conditions: time 6.25 hrs
T1 sequence (P19838 whole entry, looked up): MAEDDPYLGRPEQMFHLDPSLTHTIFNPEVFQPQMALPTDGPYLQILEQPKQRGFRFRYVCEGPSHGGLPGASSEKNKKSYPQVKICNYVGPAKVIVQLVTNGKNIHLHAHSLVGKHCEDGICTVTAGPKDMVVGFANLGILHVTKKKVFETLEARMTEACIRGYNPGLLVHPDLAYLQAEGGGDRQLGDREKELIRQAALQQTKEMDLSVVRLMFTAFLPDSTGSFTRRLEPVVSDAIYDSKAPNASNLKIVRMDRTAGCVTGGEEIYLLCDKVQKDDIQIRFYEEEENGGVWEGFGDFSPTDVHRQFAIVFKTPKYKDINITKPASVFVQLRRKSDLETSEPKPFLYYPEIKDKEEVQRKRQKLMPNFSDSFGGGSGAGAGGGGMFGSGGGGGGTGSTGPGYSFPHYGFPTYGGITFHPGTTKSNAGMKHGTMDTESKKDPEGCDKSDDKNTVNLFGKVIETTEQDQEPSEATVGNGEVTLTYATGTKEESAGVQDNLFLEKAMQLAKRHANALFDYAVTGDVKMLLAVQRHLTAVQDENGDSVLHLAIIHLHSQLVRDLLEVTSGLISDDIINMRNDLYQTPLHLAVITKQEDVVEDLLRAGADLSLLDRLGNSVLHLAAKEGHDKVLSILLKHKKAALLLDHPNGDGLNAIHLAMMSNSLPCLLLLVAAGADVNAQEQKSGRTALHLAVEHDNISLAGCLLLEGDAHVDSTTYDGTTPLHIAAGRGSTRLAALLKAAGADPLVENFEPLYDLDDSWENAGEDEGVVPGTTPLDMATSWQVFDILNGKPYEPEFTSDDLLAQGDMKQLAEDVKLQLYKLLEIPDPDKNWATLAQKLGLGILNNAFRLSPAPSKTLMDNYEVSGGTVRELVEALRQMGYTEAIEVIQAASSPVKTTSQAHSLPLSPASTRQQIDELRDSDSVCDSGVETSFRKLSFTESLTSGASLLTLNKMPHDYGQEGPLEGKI
T1 sequence (Q00653 whole entry, looked up): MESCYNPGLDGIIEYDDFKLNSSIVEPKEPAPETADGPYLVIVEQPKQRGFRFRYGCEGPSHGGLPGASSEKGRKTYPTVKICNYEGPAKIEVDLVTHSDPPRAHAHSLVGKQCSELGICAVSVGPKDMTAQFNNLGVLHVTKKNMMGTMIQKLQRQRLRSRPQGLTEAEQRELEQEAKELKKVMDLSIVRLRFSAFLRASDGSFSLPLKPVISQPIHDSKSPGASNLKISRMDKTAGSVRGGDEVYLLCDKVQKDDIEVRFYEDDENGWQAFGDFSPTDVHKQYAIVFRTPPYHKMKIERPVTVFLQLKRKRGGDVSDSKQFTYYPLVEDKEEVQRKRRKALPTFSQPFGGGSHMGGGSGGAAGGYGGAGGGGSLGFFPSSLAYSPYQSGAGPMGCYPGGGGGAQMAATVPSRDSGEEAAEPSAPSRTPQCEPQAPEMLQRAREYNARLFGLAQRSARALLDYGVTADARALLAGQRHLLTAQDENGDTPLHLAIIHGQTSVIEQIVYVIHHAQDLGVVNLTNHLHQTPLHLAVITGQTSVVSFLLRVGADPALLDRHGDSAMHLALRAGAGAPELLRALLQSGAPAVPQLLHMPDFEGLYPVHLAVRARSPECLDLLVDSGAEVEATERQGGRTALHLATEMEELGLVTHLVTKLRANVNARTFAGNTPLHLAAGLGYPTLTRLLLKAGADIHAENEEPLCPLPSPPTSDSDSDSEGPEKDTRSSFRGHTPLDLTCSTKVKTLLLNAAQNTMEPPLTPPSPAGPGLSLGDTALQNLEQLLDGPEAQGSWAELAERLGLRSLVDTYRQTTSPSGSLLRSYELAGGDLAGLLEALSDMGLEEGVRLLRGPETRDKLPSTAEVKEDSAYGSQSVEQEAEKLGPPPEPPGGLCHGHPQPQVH
T1 sequence (Q04206 whole entry, looked up): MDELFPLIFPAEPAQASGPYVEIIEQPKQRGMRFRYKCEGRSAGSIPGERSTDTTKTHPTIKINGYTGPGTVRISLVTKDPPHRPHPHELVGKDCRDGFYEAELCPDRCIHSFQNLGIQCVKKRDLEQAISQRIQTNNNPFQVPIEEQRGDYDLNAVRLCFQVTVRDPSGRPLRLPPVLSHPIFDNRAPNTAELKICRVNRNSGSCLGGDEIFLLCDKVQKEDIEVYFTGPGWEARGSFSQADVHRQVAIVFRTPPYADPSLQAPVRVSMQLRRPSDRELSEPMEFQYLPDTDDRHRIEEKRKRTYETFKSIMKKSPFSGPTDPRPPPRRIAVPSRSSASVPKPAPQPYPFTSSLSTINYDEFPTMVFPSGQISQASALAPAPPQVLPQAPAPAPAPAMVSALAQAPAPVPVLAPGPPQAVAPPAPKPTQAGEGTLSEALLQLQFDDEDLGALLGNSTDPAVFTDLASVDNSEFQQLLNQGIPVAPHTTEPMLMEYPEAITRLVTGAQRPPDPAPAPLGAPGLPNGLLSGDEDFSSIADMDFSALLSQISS

HT-29 [14] = assay: Induction of apoptosis in human HT-29 cells assessed as necrotic cells at 0.5 uM incubated for 24 hrs by Annexin V-FITC/PI staining based flow cytometric analysis (reference value: 0.14 %); type: functional
HT-29 [15] = assay: Induction of apoptosis in human HT-29 cells assessed as necrotic cells at 5 uM incubated for 24 hrs by Annexin V-FITC/PI staining based flow cytometric analysis (reference value: 0.37 %); type: functional
Cell membrane = assay: Disruption of mitochondrial membrane potential in human HCT-116 cells at 0.25 to 10 uM measured after 24 hrs by JC-1 staining based flow cytometry analysis; type: subcellular; conditions: dose 0.25-10 µM
[16] = Toxicity in athymic nude BALB/c mouse xenografted with human HCT-116 cells assessed as pathological changes in heart at 5 to 15 mg/kg, ip administered every other day and measured after 14 days by hematoxylin and eosin staining-based microscopic analysis; type: organism-based; conditions: in vivo, 336 h, dose 5-15 mg/kg, time 14 day
[17] = Toxicity in athymic nude BALB/c mouse xenografted with human HT-29 cells assessed as reduction in body weight at 5 to 15 mg/kg, ip administered every other day and measured every other day for 16 days; type: organism-based; conditions: in vivo, 384 h, dose 5-15 mg/kg, time 16 day
HCT-116 [18] = assay: Induction of apoptosis in human HCT-116 cells assessed as viable cells at 1 uM incubated for 24 hrs by Annexin V-FITC/PI staining based flow cytometric analysis (reference value: 88.8%); type: functional; conditions: read-out: Activity
HCT-116 [19] = assay: Induction of cell cycle arrest in human HCT-116 cells assessed as accumulation of cells at S phase at 10 uM by RNase/PI staining based flow cytometry analysis (reference value: 43.77 %); type: functional
HCT-116 [20] = assay: Induction of apoptosis in human HCT-116 cells assessed as late apoptotic cells at 0.5 uM incubated for 24 hrs by Annexin V-FITC/PI staining based flow cytometric analysis (reference value: 2.9 %); type: functional
RAW264.7 [21] = assay: Inhibition of LPS-induced NFkappaB activation in mouse RAW264.7 cells assessed as inhibition of IkappaBalpha phosphorylation preincubated for 24 hrs followed by LPS stimulation for 3 hrs by Western blot analysis; type: cell-based; conditions: dose 1-10 µM, time 27.0 hrs
[22] = target: T1, Nuclear factor NF-kappa-B complex (Homo sapiens); assay: Inhibition of TNF-alpha induced NFkappaB activation in human HT-29 cells assessed as inhibition of IL-8 production at 2 uM pretreated for 24 hrs followed by TNFalpha stimulation for 4 hrs by ELISA; type: cell-based; conditions: time 28.0 hrs
Mus musculus [23] = assay: In vivo inhibition of NFkappaB activation in LPS-induced BALB/c mouse model of endotoxin shock assessed as inhibition of TNF-alpha mRNA expression in liver at 5 mg/kg, ip pretreated for 4 hrs followed by LPS stimulation for 1 hr by RT-PCR analysis; type: functional, organism-based; conditions: time 5.0 hrs
HCT-116 [24] = assay: Antitumor activity against human HCT-116 cells xenografted in athymic nude BALB/c mouse assessed as induction of autophagy by measuring increase in LC3B expression in tumor at 15 mg/kg, ip administered every other day and measured after 14 days by immunohistochemistry analysis; type: functional, organism-based; conditions: time 14.0 day
HT-29 [25] = assay: Induction of apoptosis in human HT-29 cells assessed as inhibition of caspase 3 protein expression measured for 24 hrs by Western blot analysis; type: functional, cell-based; conditions: dose 0-10 µM
HCT-116 [26] = assay: Antitumor activity against human HCT-116 cells xenografted in athymic nude BALB/c mouse assessed as reduction in tumor volume at 5 to 15 mg/kg, ip administered every other day and measured every other day for 16 days; type: functional, organism-based; conditions: dose 5-15 mg/kg, time 16.0 day
HCT-116 [27] = assay: Induction of cell cycle arrest in human HCT-116 cells assessed as accumulation of cells at G0/G1 phase at 1 uM by RNase/PI staining based flow cytometry analysis (reference value: 33.08 %); type: functional
HT-29 [28] = assay: Induction of autophagy in human HT-29 cells assessed as increase in LC3 protein expression at 1 to 10 uM incubated for 24 hrs by Western blot analysis; type: functional, cell-based; conditions: dose 1-10 µM

C[C@@H]1CC[C@H]2[C@H](C(=O)c3c(O)c([C@@]4(O)CC[C@@H](O)[C@H]5O[C@H]54)cn(O)c3=O)[C@H](C)C=C[C@@H]2C1
Activity (HT-29 [1]): 0.15%
inhibition (Mus musculus [2]): Active
Activity (HT-29 [3]): Active
Activity (HT-29 [4]): Active
survival at 5 mg/kg (Mus musculus [5]): > 40%
Activity (HCT-116 [6]): 3.14%
viability at 5 µM (HT-29 [7]): 65.5%
Activity (HCT-116 [8]): Active
viability at 10 µM (HCT-116 [9]): 11.1%
Activity [10]: Non-Toxic
Activity (HCT-116 [11]): 14.17%
inhibition (RAW264.7 [12]): Dose-Dependent Effect
inhibition [13]: Active
Activity (HT-29 [14]): 0.2%
Activity (HT-29 [15]): 0.29%
Activity (Cell membrane): Active
Activity [16]: Non-Toxic
Activity [17]: Non-Toxic
viability at 1 µM (HCT-116 [18]): 32%
Activity (HCT-116 [19]): 39.08%
Activity (HCT-116 [20]): 32.8%
inhibition (RAW264.7 [21]): Dose-Dependent Effect
inhibition [22]: Active
inhibition (Mus musculus [23]): Active
Activity (HCT-116 [24]): Active
Activity (HT-29 [25]): Dose-Dependent Effect
Activity (HCT-116 [26]): Active
Activity (HCT-116 [27]): 36.23%
Activity (HT-29 [28]): Active
